Earlier results, collected in patent US20210369646A1, “Composition for local tumescent anesthesia” (priority 2020, published 2021).
Like-named read-outs stand apart in the source and are kept apart here.

Experiments:
[1] = tested on: alpha 1 acid glycoprotein; settings: bound to alpha 1 acid glycoprotein almost entirely
plasminogen = plasminogen (Homo sapiens, UniProt P00747)
Chain of plasminogen (P00747 20-810 limits assumed): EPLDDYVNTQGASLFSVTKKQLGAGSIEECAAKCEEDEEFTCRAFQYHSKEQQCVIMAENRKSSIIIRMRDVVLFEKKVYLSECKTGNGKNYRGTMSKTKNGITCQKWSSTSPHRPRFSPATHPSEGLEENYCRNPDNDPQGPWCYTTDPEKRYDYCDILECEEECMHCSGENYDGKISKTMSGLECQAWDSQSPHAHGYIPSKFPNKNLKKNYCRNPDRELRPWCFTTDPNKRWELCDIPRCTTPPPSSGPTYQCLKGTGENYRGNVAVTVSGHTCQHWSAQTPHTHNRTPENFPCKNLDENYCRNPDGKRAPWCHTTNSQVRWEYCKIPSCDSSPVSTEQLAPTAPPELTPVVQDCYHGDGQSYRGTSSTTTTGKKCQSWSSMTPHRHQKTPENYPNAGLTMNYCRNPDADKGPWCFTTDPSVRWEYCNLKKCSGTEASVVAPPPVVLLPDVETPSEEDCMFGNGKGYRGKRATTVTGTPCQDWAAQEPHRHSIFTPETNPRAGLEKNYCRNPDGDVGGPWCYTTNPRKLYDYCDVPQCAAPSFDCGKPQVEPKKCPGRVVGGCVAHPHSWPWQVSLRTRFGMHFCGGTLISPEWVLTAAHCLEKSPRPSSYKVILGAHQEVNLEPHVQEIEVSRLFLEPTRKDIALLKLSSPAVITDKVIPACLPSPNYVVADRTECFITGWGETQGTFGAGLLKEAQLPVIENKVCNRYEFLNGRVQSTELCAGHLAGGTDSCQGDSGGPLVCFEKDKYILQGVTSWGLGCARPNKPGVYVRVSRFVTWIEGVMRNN

In the case of `CCCN1CCCC[C@H]1C(=O)Nc1c(C)cccc1C` [Ropivacaine], the “excreted through the kidneys into the urine” value (in vivo) is listed as ~86%, the “transformed into 3-hydroxy-ropivacaine (aromatic hydroxylation)” value (liver, share of all anesthetic agent) is listed as 99% and the free protein form [1] is listed as 6%.
In the case of `CNC[C@H](O)c1ccc(O)c(O)c1` [Epinephrine], the “total doses excreted into the urine” value (after next 18 hours) is listed as 50%, the “total doses excreted into the urine” value (by the first 6 hours) is listed as 50% and the middle lifetime (in vivo) is listed as 20 s. The “principal metabolite: conjugated metanephrine” value (in vivo) was 40%, the “principal metabolite: vanillylmandelic acid” value (in vivo) was 40% and the “maximum concentration after a subcutaneous injection (time)” value (subcutaneous injection) was 20 to 40 min.
For `NC[C@H]1CC[C@H](C(=O)O)CC1` [Tranexamic acid], the plasmatic protein bound (plasmatic protein) is given as 3%, the free protein form (plasmatic protein; in words) is given as “no free protein form” and the middle lifetime (after the administration) is given as 11000 s. The “excreted through the kidneys into the urine without a conjugated form” value (by the first 24 hours) was 90% and the affinity to plasminogen (plasminogen) was “high affinity”.
